From US8940343B2, “Personal care composition” (Conopco Inc., priority 2010, dated 2015)

Tests used:
[1] = HPTLC photostability of Parsol 1789 spotted with potential quencher molecules (methanol stock solutions), UVR exposure, densitometry; assay type: physicochemical; conditions: Parsol 1789 remaining on HPTLC plate after UVR 5.5 mW/cm^2 for 120 minutes; ratios by weight
Description: The method was based on spotting the HPTLC plates (in duplicate) with the sunscreen molecules of interest along with potential quencher molecules or formulations. The plate is then exposed to UVR (intensity 5.5 mW/cm^2) for 120 minutes. Following this the chromatographic separation was carried out using appropriate solvent system. Densitometry analysis is done to determine the amount of sunscreen degraded.
Stock solutions were prepared in methanol following the ratios as mentioned in the following table. 14 μL of stock solutions were loaded (3 mm width; 16 mm separation) on a 10×10 cm F254 HPTLC plate, using CAMAG LINOMAT 5 applicator equipped with a 100 μL micro-syringe (Hamilton, Switzerland). Ascending chromatography was performed at a distance of 85 mm in a TLC chamber using n-hexane-ethyl acetate 9:1 (v/v) as the mobile phase (˜10 mL). The plates were dried at room temperature and subjected to ultraviolet absorption densitometry scan. The concentration dependent fluorescent bands due to presence of sunscreens were detected with a linear scan at 310 or 357 nm, using Camag TLC Scanner 3, in the presence of deuterium source. […] 4-t-buty-4′-methoxdibenzoylmethane concentrations present on each lane were determined from densitogram peak areas; prior and after the sun exposure using Win CATS Planar chromatography manager software.

[2] = known phenolic antioxidants compared with theaflavin

## COc1ccc(C(=O)CC(=O)c2ccc(C(C)(C)C)cc2)cc1 [Example 1a, 4-t-butyl-4′-methoxydibenzoylmethane]
[1]
  Mean Percent stability: 61.9%

## COC(=O)c1cc(O)c(O)c(O)c1 [methyl gallate]
[2]
  stabilizing property for sunscreens: did not provide the stabilizing property
